≈ marks a conversion by molar mass, not a printed value.
Key:
[1] = system: Wild-type Mycobacterium tuberculosis biofilm; assay: Inhibition of mycobacterial biofilm formation (crystal violet)
[2] = system: Leucyl-tRNA synthetase mRNA; assay: Leucyl t-RNA synthetase gene expression inhibition (qPCR); type: cell-based; conditions: A549 cells, 25 µL (10 mM) overnight, RT-PCR, in words
[3] = system: Mycobacterium tuberculosis strain H37Rv (ATCC 25618); assay: Antimycobacterial activity, well diffusion method; type: cell-based; conditions: LJM agar, 6 weeks; for MIC: Mycobacterium tuberculosis
[4] = biological target: T1, leucyl t-RNA synthetase (LeuRS) (Mycobacterium tuberculosis, UniProt P9WFV1); assay: biochemical; type: binding; conditions: for Binding Enthalpy ΔH / Kd: ITC; for Kd: pH 7.0, read-out: Floating Association Constant ka (converted)
T1 construct: purchased Sigma-Aldrich

[5] = Conc. of Ligand/Protein 0.0125 µM
[6] = Conc. of Ligand/Protein 0.025 µM
[7] = Conc. of Ligand/Protein 0.050 µM
[8] = Conc. of Ligand/Protein 0.100 µM
[9] = Conc. of Ligand/Protein 0.200 µM
[10] = Conc. of Ligand/Protein 0.400 µM
[11] = Conc. of Ligand/Protein 0.800 µM
[12] = Conc. of Ligand/Protein 1.600 µM
[13] = Conc. of Ligand/Protein 3.20 µM
[14] = Conc. of Ligand/Protein 5.00 µM

T1 sequence (P9WFV1 whole entry): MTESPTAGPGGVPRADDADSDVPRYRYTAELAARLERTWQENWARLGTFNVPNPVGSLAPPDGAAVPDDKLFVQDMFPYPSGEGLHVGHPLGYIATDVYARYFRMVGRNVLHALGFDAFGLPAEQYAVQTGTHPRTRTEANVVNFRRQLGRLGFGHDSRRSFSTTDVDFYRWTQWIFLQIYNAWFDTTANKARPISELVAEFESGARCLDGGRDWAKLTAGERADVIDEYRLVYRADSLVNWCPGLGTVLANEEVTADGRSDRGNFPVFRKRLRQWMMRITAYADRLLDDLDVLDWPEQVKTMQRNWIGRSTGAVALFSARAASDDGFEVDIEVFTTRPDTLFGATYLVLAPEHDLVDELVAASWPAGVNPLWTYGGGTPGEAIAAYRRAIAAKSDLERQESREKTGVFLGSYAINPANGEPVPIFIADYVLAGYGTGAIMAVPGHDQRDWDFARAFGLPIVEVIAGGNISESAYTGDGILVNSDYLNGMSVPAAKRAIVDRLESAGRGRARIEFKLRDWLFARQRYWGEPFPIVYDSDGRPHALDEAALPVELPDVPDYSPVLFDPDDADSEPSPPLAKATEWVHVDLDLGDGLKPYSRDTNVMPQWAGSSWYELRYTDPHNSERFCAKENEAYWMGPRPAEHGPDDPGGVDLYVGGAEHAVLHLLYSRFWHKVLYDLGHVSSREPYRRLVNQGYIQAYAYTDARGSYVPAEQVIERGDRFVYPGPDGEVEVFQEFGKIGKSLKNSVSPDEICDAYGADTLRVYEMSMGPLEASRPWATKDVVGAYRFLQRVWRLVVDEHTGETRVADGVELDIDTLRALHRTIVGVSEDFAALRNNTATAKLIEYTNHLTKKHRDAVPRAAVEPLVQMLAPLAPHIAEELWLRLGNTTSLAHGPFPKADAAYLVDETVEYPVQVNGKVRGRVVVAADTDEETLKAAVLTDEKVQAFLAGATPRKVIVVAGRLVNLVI

Row | Structure (SMILES) | OD (biofilm formation) ([1]; Conc. 5.0 (unit not given)) | OD (biofilm formation) ([1]; Conc. 10.0 (unit not given)) | OD (biofilm formation) ([1]; Conc. 15.0 (unit not given)) | OD (biofilm formation) ([1]; Conc. 20.0 (unit not given)) | OD (biofilm formation) ([1]; Conc. 25.0 (unit not given)) | Zone of Inhibition [3] [mm] | MIC [3] [µg/mL] | ΔH for Ligands ([4]; Conc. of Ligand/Protein 00 µM) [kcal/mol] | ΔH for Ligands [4, 5] [kcal/mol] | ΔH for Ligands [4, 6] [kcal/mol] | ΔH for Ligands [4, 7] [kcal/mol] | ΔH for Ligands [4, 8] [kcal/mol] | ΔH for Ligands [4, 9] [kcal/mol] | ΔH for Ligands [4, 10] [kcal/mol] | ΔH for Ligands [4, 11] [kcal/mol] | ΔH for Ligands [4, 12] [kcal/mol] | ΔH for Ligands [4, 13] [kcal/mol] | ΔH for Ligands [4, 14] [kcal/mol] | Binding Enthalpy ΔH ([4]; 25 °C, pH 7.0, fitted) [kcal/mol] | Kd ([4]; 25 °C) [µM] | also measured
1 | OB1OCc2cc(F)ccc21 [AN2690] | 0.4256 | 0.3658 | 0.2452 | 0.2048 | 0.0980 |  |  |  |  |  |  |  |  |  |  |  |  |  |  |  | LeuRS gene expression (copies of mRNA per cycle) [2]: lower copies of LeuRS
2 | CC(C)C(N)C(=O)OCC(CO)OCn1cnc2c(=O)[nH]c(N)nc21 (stereo not drawn) [Compound 1035, 2-((2-amino-6-oxo-1H-purin-9(6H)-yl)methoxy)-3-hydroxypropyl 2-amino-3-methylbutanoate] | 0.7685 | 0.6255 | 0.5454 | 0.3256 | 0.1854 | 13.68 ± 0.21 | 119.87 ± 0.1 (≈ 338 µM) | -20.76 | -19.51 | -18.06 | -15.16 | -13.83 | -10.49 | -8.164 | -5.521 | -3.884 | -3.023 | 0 | -11.75 | 23.9 | 
3 | CC(C)(N)C(=O)N[C@H](Cc1c[nH]c2ccccc12)C(=O)N[C@H](Cc1c[nH]c2ccccc12)NC=O [Compound 1054, 2-amino-N-((R)-1-(((R)-1-formamido-2-(1H-indol-3-yl)ethyl)amino)-3-(1H-indol-3-yl)-1-oxopropan-2-yl)-2-methylpropanamide] | 0.5428 | 0.4548 | 0.3425 | 0.2186 | 0.1254 | 18.45 ± 0.19 | 186.4 ± 0.21 (≈ 393 µM) | -19.62 | -18.2 | -16.31 | -14.37 | -12.49 | -9.859 | -7.106 | -4.89 | -3.145 | -2.49 | 0 | -11.53 | 0.158 | biofilm formation inhibitory activity ([1]; in words, compared to control / other compounds): higher inhibition in biofilm formation; LeuRS gene expression (copies of mRNA per cycle) [2]: more effective in down-regulating the LeuRS gene; Binding Enthalpy ΔH [4]: -48.23 kL/mol
4 | NCC[C@H](O)C(=O)N[C@@H]1C[C@H](N)[C@@H](O[C@H]2O[C@H](CN)[C@@H](O)[C@H](O)[C@H]2O)[C@H](O)[C@H]1O[C@H]1O[C@H](CO)[C@@H](O)[C@H](N)[C@H]1O [Compound 2077, (S)-4-amino-N-((1R,2S,3S,4R,5S)-5-amino-2-(((2S,3R,4S,5S,6R)-4-amino-3,5-dihydroxy-6-(hydroxymethyl)tetrahydro-2H-pyran-2-yl)oxy)-4-(((2R,3R,4S,5S,6R)-6-(aminomethyl)-3,4,5-trihydroxytetrahydro-2H-pyran-2-yl)oxy)-3-hydroxycyclohexyl)-2-hydroxybutanamide] | 0.7588 | 0.5358 | 0.3585 | 0.2544 | 0.1456 | 15.57 ± 0.80 | 147.4 ± 0.8 (≈ 252 µM) | -20.11 | -19.15 | -17.64 | -14.67 | -13.18 | -9.9 | -7.469 | -4.818 | -3.215 | -2.476 | 0 | -11.92 | 129 | 
